Values joined by “and” are separate entries in the source; they are usually repeats but may differ in a detail not shown here. Equal entries are not always repeated.
What was measured:
HepG2 cell line = assay: MTT cytotoxicity assay, HepG2; type: cell-based; conditions: for IC50: Homo sapiens, HepG2, read-out: IC50 HepG2; for Selectivity index: fold more toxic against HepG2 than VERO cells: VERO IC50 / HepG2 IC50
MCF-7 cell line = assay: MTT cytotoxicity assay, MCF-7; type: cell-based; conditions: for IC50: Homo sapiens, MCF7, read-out: IC50 MCF-7; for Selectivity index: fold more toxic in MCF-7 than in VERO cells: VERO IC50 / MCF-7 IC50
HCT116 cell line = assay: MTT cytotoxicity assay, HCT116; type: cell-based; conditions: for IC50: Homo sapiens, HCT-116, read-out: IC50 HCT116; for Selectivity index: fold grander lethalness in HCT116 than in VERO cells: VERO IC50 / HCT116 IC50
A549 cell line = assay: MTT cytotoxicity assay, A549; type: cell-based; conditions: for IC50: Homo sapiens, A549, read-out: IC50 A549; for Selectivity index: fold more toxicity in A549 than in VERO cells: VERO IC50 / A549 IC50
EGFR^WT = EGFR^WT (Homo sapiens, UniProt P00533); assay: In vitro EGFR^WT kinase inhibitory assay; type: biochemical; conditions: mean ± SD of three separate experiments
EGFR^T790M = EGFR^T790M (Homo sapiens, UniProt P00533, T790M); assay: In vitro EGFR^T790M kinase inhibitory assay; type: biochemical; conditions: HTRF kinase assay, mean ± SD of three separate experiments
Sequence of EGFR^T790M (P00533 25-1210 T790M): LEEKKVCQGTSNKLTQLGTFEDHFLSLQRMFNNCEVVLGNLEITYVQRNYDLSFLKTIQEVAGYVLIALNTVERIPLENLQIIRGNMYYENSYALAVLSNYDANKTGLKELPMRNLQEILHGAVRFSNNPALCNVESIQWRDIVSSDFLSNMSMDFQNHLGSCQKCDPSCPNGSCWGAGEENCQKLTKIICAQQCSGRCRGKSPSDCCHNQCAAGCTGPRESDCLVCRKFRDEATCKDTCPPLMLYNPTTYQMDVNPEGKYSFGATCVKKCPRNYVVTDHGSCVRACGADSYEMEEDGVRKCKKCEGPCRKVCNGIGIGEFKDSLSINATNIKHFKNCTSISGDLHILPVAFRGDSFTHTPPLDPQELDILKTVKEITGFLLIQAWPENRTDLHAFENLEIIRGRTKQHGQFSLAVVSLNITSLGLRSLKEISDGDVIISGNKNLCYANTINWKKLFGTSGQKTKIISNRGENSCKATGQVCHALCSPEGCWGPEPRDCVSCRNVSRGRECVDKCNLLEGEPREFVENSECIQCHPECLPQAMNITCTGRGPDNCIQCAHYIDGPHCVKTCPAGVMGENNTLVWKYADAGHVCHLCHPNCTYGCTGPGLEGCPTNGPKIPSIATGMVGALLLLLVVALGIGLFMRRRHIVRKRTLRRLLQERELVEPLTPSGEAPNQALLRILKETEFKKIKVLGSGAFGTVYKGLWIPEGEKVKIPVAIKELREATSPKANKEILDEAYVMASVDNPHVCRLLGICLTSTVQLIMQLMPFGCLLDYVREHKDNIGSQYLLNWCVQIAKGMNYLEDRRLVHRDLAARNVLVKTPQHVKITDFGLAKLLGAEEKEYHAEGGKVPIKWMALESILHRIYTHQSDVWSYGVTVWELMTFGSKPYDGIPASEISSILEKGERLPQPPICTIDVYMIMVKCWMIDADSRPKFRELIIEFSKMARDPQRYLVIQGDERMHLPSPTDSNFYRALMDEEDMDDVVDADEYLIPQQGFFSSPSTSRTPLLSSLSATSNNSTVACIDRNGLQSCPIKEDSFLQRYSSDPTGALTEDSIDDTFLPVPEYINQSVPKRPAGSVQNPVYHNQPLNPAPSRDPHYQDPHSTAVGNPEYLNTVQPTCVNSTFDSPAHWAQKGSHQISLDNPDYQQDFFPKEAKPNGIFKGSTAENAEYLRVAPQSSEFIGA

Sequence of EGFR^WT (P00533 25-1210): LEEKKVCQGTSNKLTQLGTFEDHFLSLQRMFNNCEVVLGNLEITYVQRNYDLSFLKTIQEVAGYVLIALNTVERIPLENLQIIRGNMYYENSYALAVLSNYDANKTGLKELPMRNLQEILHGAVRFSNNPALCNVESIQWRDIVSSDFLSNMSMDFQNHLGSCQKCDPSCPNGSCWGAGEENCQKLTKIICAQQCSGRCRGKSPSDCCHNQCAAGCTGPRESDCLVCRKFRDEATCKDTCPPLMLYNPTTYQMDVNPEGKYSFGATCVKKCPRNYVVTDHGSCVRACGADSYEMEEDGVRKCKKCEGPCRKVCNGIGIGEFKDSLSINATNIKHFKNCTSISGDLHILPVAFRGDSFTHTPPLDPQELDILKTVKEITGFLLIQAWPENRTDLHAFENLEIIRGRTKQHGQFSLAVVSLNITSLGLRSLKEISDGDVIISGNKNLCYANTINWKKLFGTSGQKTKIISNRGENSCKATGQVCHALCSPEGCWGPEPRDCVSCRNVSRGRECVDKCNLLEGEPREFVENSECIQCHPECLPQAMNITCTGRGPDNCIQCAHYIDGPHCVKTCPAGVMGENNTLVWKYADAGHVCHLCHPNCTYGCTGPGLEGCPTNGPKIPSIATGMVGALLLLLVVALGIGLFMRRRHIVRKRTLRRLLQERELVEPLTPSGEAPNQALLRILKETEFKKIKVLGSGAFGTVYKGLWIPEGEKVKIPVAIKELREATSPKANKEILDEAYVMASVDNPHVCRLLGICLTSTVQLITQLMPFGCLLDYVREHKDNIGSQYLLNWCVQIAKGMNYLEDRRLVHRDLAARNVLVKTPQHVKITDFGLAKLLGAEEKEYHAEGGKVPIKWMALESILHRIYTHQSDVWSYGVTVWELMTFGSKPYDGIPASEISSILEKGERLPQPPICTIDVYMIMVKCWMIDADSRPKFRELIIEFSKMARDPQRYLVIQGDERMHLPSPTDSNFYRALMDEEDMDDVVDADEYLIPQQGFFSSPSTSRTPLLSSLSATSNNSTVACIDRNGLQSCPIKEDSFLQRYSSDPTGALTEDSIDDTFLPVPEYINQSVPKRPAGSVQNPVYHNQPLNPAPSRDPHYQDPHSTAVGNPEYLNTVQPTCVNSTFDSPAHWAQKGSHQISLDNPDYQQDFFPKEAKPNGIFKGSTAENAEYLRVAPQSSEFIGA

Row | SMILES | IC50 (HepG2 cell line) | IC50 (MCF-7 cell line) | IC50 (HCT116 cell line) | IC50 (A549 cell line) | IC50 (EGFR^WT) | IC50 (EGFR^T790M) | Selectivity index: fold more toxic against HepG2 than VERO cells (HepG2 cell line) | Selectivity index: fold more toxic in MCF-7 than in VERO cells (MCF-7 cell line) | Selectivity index: fold grander lethalness in HCT116 than in VERO cells (HCT116 cell line) | Selectivity index: fold more toxicity in A549 than in VERO cells (A549 cell line)
1 | C=CCn1c(=O)n(CC(=O)Nc2ccc(C(=O)NC)cc2)c(=O)c2cc(I)ccc21 [Compound 5a, 4-{2-[1-Allyl-6-iodo-2,4-dioxo-1,4-dihydroquinazolin-3(2H)-yl]acetamido}-N-methylbenzamide] | 15 ± 1.5 µM | 13.2 ± 1 µM | 13.4 ± 1.5 µM | 10.6 ± 1.5 µM | 1.32 ± 0.25 µM | 1.62 ± 0.2 µM | – | – | – | –
2 | C=CCn1c(=O)n(CC(=O)Nc2ccc(C(=O)NCC)cc2)c(=O)c2cc(I)ccc21 [Compound 5b, 4-{2-[1-Allyl-6-iodo-2,4-dioxo-1,4-dihydroquinazolin-3(2H)-yl]acetamido}-N-ethylbenzamide] | 12.5 ± 1 µM | 11.3 ± 1.1 µM | 11 ± 1.3 µM | 9.5 ± 1.5 µM | 1 ± 0.15 µM | 1.33 ± 0.1 µM | – | – | – | –
3 | C=CCn1c(=O)n(CC(=O)Nc2ccc(C(=O)OC)cc2)c(=O)c2cc(I)ccc21 [Compound 6a, Methyl 4-{2-[1-allyl-6-iodo-2,4-dioxo-1,4-dihydroquinazolin-3(2H)-yl]acetamido}benzoate] | 13 ± 1.4 µM | 12.2 ± 1.7 µM | 12.1 ± 1.5 µM | 10.4 ± 1.5 µM | 1.15 ± 0.25 µM | 1.54 ± 0.5 µM | – | – | – | –
4 | C=CCn1c(=O)n(CC(=O)Nc2ccc(C(=O)OCC)cc2)c(=O)c2cc(I)ccc21 [Compound 6b, Ethyl 4-{2-[1-allyl-6-iodo-2,4-dioxo-1,4-dihydroquinazolin-3(2H)-yl]acetamido}benzoate] | 11.6 ± 1.8 µM | 11 ± 1.6 µM | 9.79 ± 1.8 µM | 9.39 ± 1.5 µM | 0.95 ± 0.35 µM | 1.12 ± 0.5 µM | – | – | – | –
5 | C=CCn1c(=O)n(CC(=O)Nc2ccc(C(=O)NN)cc2)c(=O)c2cc(I)ccc21 [Compound 7, 2-[1-Allyl-6-iodo-2,4-dioxo-1,4-dihydroquinazolin-3(2H)-yl]-N-[4-(hydrazinecarbonyl)phenyl]acetamide] | 16.5 ± 1.6 µM | 15.2 ± 1.9 µM | 15.2 ± 1.7 µM | 12.2 ± 1.5 µM | 1.5 ± 0.15 µM | 1.9 ± 0.5 µM | – | – | – | –
6 | C=CCn1c(=O)n(CC(=O)Nc2ccc(-c3nnc(S)o3)cc2)c(=O)c2cc(I)ccc21 [Compound 8, 2-(1-Allyl-6-iodo-2,4-dioxo-1,4-dihydroquinazolin-3(2H)-yl)-N-(4-(5-mercapto-1,3,4-oxadiazol-2-yl)phenyl)acetamide] | 11.2 ± 1.9 µM | 10.8 ± 1.8 µM | 9.31 ± 1.8 µM | 9 ± 1.5 µM | 0.88 ± 0.35 µM | 0.96 ± 0.5 µM | – | – | – | –
7 | C=CCn1c(=O)n(CC(=O)Nc2ccc(-c3nnc(C)o3)cc2)c(=O)c2cc(I)ccc21 [Compound 9, 2-[1-Allyl-6-iodo-2,4-dioxo-1,4-dihydroquinazolin-3(2H)-yl]-N-[4-(5-methyl-1,3,4-oxadiazol-2-yl)phenyl]acetamide] | 11 ± 1.4 µM | 10.4 ± 1.7 µM | 8.62 ± 1.5 µM | 7.06 ± 1.5 µM | 0.8 ± 0.25 µM | 0.89 ± 0.5 µM | – | – | – | –
8 | C=CCn1c(=O)n(CC(=O)Nc2ccc(-n3nc(C)cc3C)cc2)c(=O)c2cc(I)ccc21 [Compound 10, 2-[1-Allyl-6-iodo-2,4-dioxo-1,4-dihydroquinazolin-3(2H)-yl]-N-[4-(3,5-dimethyl-1H-pyrazol-1-yl)phenyl]acetamide] | 7.35 ± 1 µM | 7.85 ± 0.9 µM | 6.96 ± 1.1 µM | 6.9 ± 1.5 µM | 0.38 ± 0.35 µM | 0.54 ± 0.5 µM | 5.91 fold | 5.53 fold | 6.24 fold | 6.30 fold
9 | CNC(=O)c1ccc(NC(=O)Cn2c(=O)c3cc(I)ccc3n(Cc3ccccc3)c2=O)cc1 [Compound 13, 4-{2-[1-Benzyl-6-iodo-2,4-dioxo-1,4-dihydroquinazolin-3(2H)-yl]acetamido}-N-methylbenzamide] | 8 ± 1.3 µM | 8.25 ± 1.1 µM | 7.36 ± 1.1 µM | 7.1 ± 1.1 µM | 0.5 ± 0.15 µM | 0.61 ± 0.1 µM | 5.86 fold | 5.68 fold | 6.37 fold | 6.60 fold
10 | COC(=O)c1ccc(NC(=O)Cn2c(=O)c3cc(I)ccc3n(Cc3ccccc3)c2=O)cc1 [Compound 14a, Methyl 4-{2-[1-benzyl-6-iodo-2,4-dioxo-1,4-dihydroquinazolin-3(2H)-yl]acetamido}benzoate] | 9 ± 1.2 µM | 8.35 ± 1.5 µM | 8.5 ± 1.1 µM | 7.87 ± 1.1 µM | 0.6 ± 0.35 µM | 0.75 ± 0.5 µM | 5.58 fold | 6.01 fold | 5.91 fold | 6.38 fold
11 | CCOC(=O)c1ccc(NC(=O)Cn2c(=O)c3cc(I)ccc3n(Cc3ccccc3)c2=O)cc1 [Compound 14b, Ethyl 4-{2-[1-benzyl-6-iodo-2,4-dioxo-1,4-dihydroquinazolin-3(2H)-yl]acetamido}benzoate] | 5.86 ± 1 µM | 7.03 ± 1.1 µM | 6.15 ± 1.5 µM | 5.77 ± 1.3 µM | 0.25 ± 0.35 µM | 0.36 ± 0.1 µM | 8.39 fold | 6.99 fold | 7.99 fold | 8.52 fold
12 | NNC(=O)c1ccc(NC(=O)Cn2c(=O)c3cc(I)ccc3n(Cc3ccccc3)c2=O)cc1 [Compound 15, 2-[1-Benzyl-6-iodo-2,4-dioxo-1,4-dihydroquinazolin-3(2H)-yl]-N-[4-(hydrazinecarbonyl)phenyl]acetamide] | 9.5 ± 1 µM | 8.8 ± 1 µM | 8.95 ± 1 µM | 8.18 ± 1 µM | 0.65 ± 0.15 µM | 0.8 ± 0.1 µM | 5.49 fold | 5.92 fold | 5.82 fold | 6.37 fold
13 | O=C(Cn1c(=O)c2cc(I)ccc2n(Cc2ccccc2)c1=O)Nc1ccc(-c2nnc(S)o2)cc1 [Compound 16, 2-[1-Benzyl-6-iodo-2,4-dioxo-1,4-dihydroquinazolin-3(2H)-yl]-N-[4-(5-mercapto-1,3,4-oxadiazol-2-yl)phenyl]acetamide] | 6.54 ± 1 µM | 7.36 ± 1 µM | 6.67 ± 1 µM | 6.2 ± 1 µM | 0.33 ± 0.25 µM | 0.4 µM and 0.43 µM | 6.69 fold | 5.95 fold | 6.56 fold | 7.06 fold
14 | Cc1nnc(-c2ccc(NC(=O)Cn3c(=O)c4cc(I)ccc4n(Cc4ccccc4)c3=O)cc2)o1 [Compound 17, 2-[1-Benzyl-6-iodo-2,4-dioxo-1,4-dihydroquinazolin-3(2H)-yl]-N-[4-(5-methyl-1,3,4-oxadiazol-2-yl)phenyl]acetamide] | 5.55 ± 0.7 µM | 6.85 ± 0.9 µM | 5.4 ± 1.5 µM | 5.11 ± 1.1 µM | 0.15 ± 0.35 µM | 0.3 ± 0.5 µM | 8.31 fold | 6.73 fold | – | –
15 | Cc1cc(C)n(-c2ccc(NC(=O)Cn3c(=O)c4cc(I)ccc4n(Cc4ccccc4)c3=O)cc2)n1 [Compound 18, 2-[1-Benzyl-6-iodo-2,4-dioxo-1,4-dihydroquinazolin-3(2H)-yl]-N-[4-(3,5-dimethyl-1H-pyrazol-1-yl)phenyl]acetamide] | 5.25 ± 0.7 µM | 6.46 ± 0.9 µM | 5.68 ± 1.5 µM | 5.24 ± 1.1 µM | 0.17 ± 0.35 µM | 0.25 ± 0.5 µM | 8.67 fold | 7.04 fold | – | –
